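Cells were grown in 96-well plates and exposed to each compound for 48 hours at five concentrations; endpoints were interpolated linearly between bracketing concentrations, or set to the highest concentration if not reached. The concentration for 50% growth inhibition is given as GI50.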 Active and inactive are the calls of the source. Rule as the data show it: active = GI50 up to about 1.1 µM and inactive = higher.
Assays:
Experiment in all cases: growth of human tumour cells (NCI), 48 h
A498 = system: A498
ACHN = system: ACHN
BT-549 = system: BT-549
COLO 205 = system: COLO 205
EKVX = system: EKVX
HOP-92 = system: HOP-92
HT-29 = system: HT-29
IGROV-1 = system: IGROV-1
M14 = system: M14
MDA-MB-231 = system: MDA-MB-231
MDA-MB-435 = system: MDA-MB-435
Malme-3M = system: Malme-3M
NCI/ADR-RES = system: NCI/ADR-RES
OVCAR-3 = system: OVCAR-3
SF-268 = system: SF-268
SF-295 = system: SF-295
SNB-75 = system: SNB-75
U-251 = system: U-251
UACC-62 = system: UACC-62
HL-60 = system: HL-60

Measured: GI50

N#CNC(=N)Nc1ccc(Cl)cc1
inactive: A498 > 100 µM | ACHN > 100 µM | BT-549 > 100 µM | COLO 205 > 100 µM | EKVX > 100 µM | HOP-92 > 100 µM | HT-29 > 100 µM | IGROV-1 > 100 µM | M14 > 100 µM | MDA-MB-231 > 100 µM | MDA-MB-435 > 100 µM | Malme-3M > 100 µM | NCI/ADR-RES > 100 µM | OVCAR-3 > 100 µM | SF-268 > 100 µM | SF-295 > 100 µM | SNB-75 > 100 µM | U-251 > 100 µM | UACC-62 > 100 µM

NS(=O)(=O)c1cc2c(cc1Cl)N=C(CCC(=O)O)NS2(=O)=O
inactive: A498 > 100 µM | ACHN > 100 µM | BT-549 > 100 µM | COLO 205 > 100 µM | EKVX > 100 µM | HOP-92 > 100 µM | HT-29 > 100 µM | IGROV-1 > 100 µM | M14 > 100 µM | MDA-MB-231 > 100 µM | MDA-MB-435 > 100 µM | Malme-3M > 100 µM | NCI/ADR-RES > 100 µM | OVCAR-3 > 100 µM | SF-268 > 100 µM | SF-295 > 100 µM | SNB-75 > 100 µM | U-251 > 100 µM | UACC-62 > 100 µM

Cc1c[nH]c(C(=O)O)c1-c1cccn1-c1ccc(Cl)cc1[N+](=O)[O-]
inactive: A498 > 100 µM | ACHN > 100 µM | BT-549 > 100 µM | COLO 205 > 100 µM | EKVX > 100 µM | HOP-92 56 µM | HT-29 > 100 µM | IGROV-1 36.3 µM | M14 > 100 µM | MDA-MB-231 > 100 µM | MDA-MB-435 > 100 µM | NCI/ADR-RES 72.3 µM | OVCAR-3 11.8 µM | SF-268 > 100 µM | SF-295 73.8 µM | SNB-75 > 100 µM | U-251 > 100 µM | UACC-62 > 100 µM

O=C(NCCCNCCCCNCCCNC(=O)C(F)(F)F)C(F)(F)F
inactive: A498 > 100 µM | ACHN > 100 µM | BT-549 > 100 µM | COLO 205 > 100 µM | EKVX > 100 µM | HL-60 46.1 µM | HT-29 > 100 µM | IGROV-1 > 100 µM | M14 > 100 µM | MDA-MB-231 > 100 µM | MDA-MB-435 > 100 µM | Malme-3M > 100 µM | NCI/ADR-RES > 100 µM | OVCAR-3 > 100 µM | SF-268 > 100 µM | SF-295 > 100 µM | SNB-75 > 100 µM | U-251 > 100 µM | UACC-62 > 100 µM

Cc1cc2nnn(C3CCCO3)c2cc1C (stereo unspecified)
inactive: A498 > 100 µM | BT-549 > 100 µM | COLO 205 > 100 µM | EKVX > 100 µM | HL-60 > 100 µM | HT-29 > 100 µM | IGROV-1 > 100 µM | M14 > 100 µM | MDA-MB-231 > 100 µM | MDA-MB-435 > 100 µM | Malme-3M > 100 µM | NCI/ADR-RES > 100 µM | OVCAR-3 > 100 µM | SF-268 > 100 µM | SF-295 > 100 µM | SNB-75 31.8 µM | U-251 > 100 µM | UACC-62 > 100 µM

CCCCCCCCOC1C(O)C(O)C(O)C(O)C12CO2 (stereo unspecified)
inactive: A498 > 100 µM | ACHN 53.8 µM | BT-549 37.6 µM | COLO 205 > 100 µM | HL-60 42 µM | HT-29 49.5 µM | IGROV-1 75.5 µM | MDA-MB-231 39.8 µM | MDA-MB-435 29.8 µM | Malme-3M 57.5 µM | NCI/ADR-RES 40.5 µM | OVCAR-3 50.4 µM | SF-268 64.4 µM | SF-295 43.8 µM | SNB-75 32 µM | U-251 41.9 µM | UACC-62 83.4 µM

OCCNCCN1CCN(CCCN2c3ccccc3Sc3ccc(C(F)(F)F)cc32)CC1
inactive: A498 > 100 µM | ACHN 24.9 µM | BT-549 85.9 µM | COLO 205 18.2 µM | EKVX 28.1 µM | HL-60 > 100 µM | HT-29 14 µM | IGROV-1 > 100 µM | M14 15.3 µM | MDA-MB-231 20.9 µM | MDA-MB-435 18.8 µM | Malme-3M 29.5 µM | NCI/ADR-RES 27.8 µM | OVCAR-3 22.7 µM | SF-268 24.5 µM | SF-295 20.4 µM | U-251 20.3 µM | UACC-62 22.3 µM

O=C1CC(=O)NC(NN2C(=O)CSC2c2ccccc2)=N1 (stereo unspecified)
inactive: A498 > 100 µM | ACHN > 100 µM | BT-549 > 100 µM | COLO 205 > 100 µM | HOP-92 55.8 µM | HT-29 > 100 µM | IGROV-1 > 100 µM | M14 > 100 µM | MDA-MB-231 > 100 µM | MDA-MB-435 > 100 µM | Malme-3M > 100 µM | NCI/ADR-RES > 100 µM | OVCAR-3 > 100 µM | SF-268 > 100 µM | SF-295 > 100 µM | SNB-75 30.9 µM | U-251 > 100 µM | UACC-62 > 100 µM
